Experimental data from patent US20240254089A1, “MODULATORS OF MAS-RELATED G-PROTEIN RECEPTOR X4 AND RELATED PRODUCTS AND METHODS” (ESCIENT PHARMACEUTICALS, INC., priority 2020, published 2024).

Target: T1, human MRGPR X4 (Homo sapiens, UniProt Q96LA9)
T1 construct: expressed in transfected cells
Assay: MRGPR X4 antagonist activity, IP-One Gq HTRF assay in stably transfected HEK cells
Format: cell-based
Details: not given
How it was run: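 Human MRGPR X4-expressing HEK cells, 20,000/well, were incubated with compound (10-point curve, 10 uM top, 1:3 dilutions) plus agonist (10 μM bilirubin, 20 μM deoxycholic acid or 100 μM conjugated bilirubin) in Tris/NaCl/LiCl buffer, pH 8, for 1 h at 37 °C, then 30 min at room temperature. IP-1 was read by HTRF, and IC50 was taken from the HTRF ratio.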

T1 sequence (Q96LA9 whole entry): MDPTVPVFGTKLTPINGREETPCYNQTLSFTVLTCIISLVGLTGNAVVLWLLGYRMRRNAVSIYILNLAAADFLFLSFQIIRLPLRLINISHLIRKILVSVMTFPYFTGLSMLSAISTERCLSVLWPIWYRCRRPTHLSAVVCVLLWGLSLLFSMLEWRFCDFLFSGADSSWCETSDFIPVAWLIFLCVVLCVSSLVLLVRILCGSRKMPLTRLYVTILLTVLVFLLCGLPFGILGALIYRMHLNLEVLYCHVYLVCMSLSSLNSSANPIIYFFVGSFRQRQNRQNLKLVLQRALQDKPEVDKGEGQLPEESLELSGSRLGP

`COC1CN(CCn2cc(C(=O)NCCc3ccccn3)c3ccccc32)C1` [Compound 228] and `O=C(NCCc1ccccn1)c1cn(Cc2ccccc2)c2ccccc12` [Compound 234] cannot be ordered by IC50: > 2500 nM for the first, > 2500 nM for the second.

`O=C(NCCC(=O)N1CCCC1)c1nn(Cc2ccc(Cl)cc2)c2ccccc12` [Compound 403] and `O=C(NCCN1CCCCC1=O)c1nn(Cc2ccc(Cl)cc2)c2ccccc12` [Compound 419] fall in the same range of IC50: 100 to 500 nM for the first, 100 to 500 nM for the second.

First: O=C(NCCc1nc2ccccc2[nH]1)c1nn(Cc2ccc(Cl)cc2)c2ccccc12 [Compound 357]
Second: O=C(NCCc1nc2ccccc2s1)c1nn(Cc2ccc(Cl)cc2)c2ccccc12 [Compound 46]
The IC50 of the first is lower: < 100 nM for the first, 100 to 500 nM for the second. The first is the more potent here.

First: Cc1cccc2nc(Cn3nc(C(=O)NCCc4nnc5ccccn45)c4ccccc43)n(C)c12 [Compound 569]
Second: Cc1ccc2nc(Cn3nc(C(=O)NCCc4nnc5ccccn45)c4ccccc43)n(C)c2c1 [Compound 568]
The IC50 of the first is lower: 100 to 500 nM for the first, 501 to 1000 nM for the second.

`O=C(NCCc1cccnc1)c1nn(Cc2ccc(Cl)cc2Cl)c2ccccc12` [Compound 16] and `O=C(NCCc1cccnc1)c1nn(Cc2ccc(Cl)c(F)c2)c2ccccc12` [Compound 17] cannot be ordered by IC50: < 100 nM for the first, < 100 nM for the second.

Compared with `Cn1ccc(CNC(=O)c2nn(Cc3ccc(Cl)cc3)c3ccccc23)n1` [Compound 354], `Cc1ccc(Cn2nc(C(=O)NCCc3ccn(C)n3)c3ccccc32)cc1` [Compound 76] is lower in IC50: > 2500 nM for the first, 501 to 1000 nM for the second.

`O=C(NCc1cnn2ccccc12)c1nn(Cc2ccc(Cl)cc2)c2ccccc12` [Compound 388] and `Cn1cc2cccc(CNC(=O)c3nn(Cc4ccc(Cl)cc4)c4ccccc34)c2n1` [Compound 428] cannot be ordered by IC50: > 2500 nM for the first, > 2500 nM for the second.

First: O=C(NCCc1nnc2ccccn12)c1nn(Cc2cccn3ccnc23)c2ccccc12 [Compound 518]
Second: O=C(NCCc1nnc2ccccn12)c1nn(Cc2ccn3ccnc3c2)c2ccccc12 [Compound 476]
The IC50 of the first is lower: 1000 to 2500 nM for the first, > 2500 nM for the second. The first is the more potent here.

Compared with `O=C(NCCc1ccc(C(F)(F)F)nc1)c1nn(Cc2ccc(Cl)cc2)c2ccccc12` [Compound 86], `O=C(NCCc1cccc(O)c1)c1nn(Cc2ccc(Cl)cc2)c2ccccc12` [Compound 9] is lower in IC50: 501 to 1000 nM for the first, < 100 nM for the second. The second is the more potent here.

Compared with `O=C(NCCOc1ccccc1)c1nn(Cc2ccc(Cl)cc2)c2ccccc12` [Compound 381], `O=C(NCCc1ccccc1O)c1nn(Cc2ccc(Cl)cc2)c2ccccc12` [Compound 20] is lower in IC50: 1000 to 2500 nM for the first, < 100 nM for the second.

`O=C(NCCc1nnc2ccccn12)c1nn(Cc2cnn(-c3ccccc3)c2)c2ccccc12` [Compound 498] and `O=C(NCCc1nnc2ccccn12)c1nn(Cc2cccc3ccccc23)c2ccccc12` [Compound 474] fall in the same range of IC50: 100 to 500 nM for the first, 100 to 500 nM for the second.

Compared with `CC(C)c1cnnn1CCNC(=O)c1nn(Cc2ccc(Cl)cc2)c2ccccc12` [Compound 143, 1-(4-chlorobenzyl)-N-(2-(5-isopropyl-1H-1,2,3-triazol-1-yl)ethyl)-1H-indazole-3-carboxamide], `Cc1nnc(CCNC(=O)c2nn(Cc3ccc(Cl)cc3)c3ccccc23)n1C` [Compound 80] is higher in IC50: 100 to 500 nM for the first, 501 to 1000 nM for the second.

Compared with `O=C(O)c1nn(Cc2ccc(Cl)cc2)c2ccc(F)cc12` [Compound 322], `O=C(NCCc1nnc2ccccn12)c1nn(Cc2ccc(Cl)cc2)c2cc(F)ccc12` [Compound 3] is lower in IC50: 1000 to 2500 nM for the first, < 100 nM for the second.

`Cc1ncsc1CCNC(=O)c1nn(Cc2ccc(Cl)cc2)c2ccccc12` [Compound 367] and `Cc1ncccc1CCNC(=O)c1nn(Cc2ccc(Cl)cc2)c2ccccc12` [Compound 44] fall in the same range of IC50: 100 to 500 nM for the first, 100 to 500 nM for the second.

`Cc1cc(C)nc(CCNC(=O)c2nn(Cc3ccc(Cl)cc3)c3ccccc23)n1` [Compound 119] and `Cc1noc(CCNC(=O)c2nn(Cc3ccc(Cl)cc3)c3ccccc23)n1` [Compound 420] fall in the same range of IC50: 1000 to 2500 nM for the first, 1000 to 2500 nM for the second.

`O=C(NCCc1nnc2ccccn12)c1nn(Cc2ccc3occc3c2)c2ccccc12` [Compound 493] and `O=C(NCCc1nnc2ccccn12)c1nn(Cc2ccc3nsnc3c2)c2ccccc12` [Compound 477] cannot be ordered by IC50: < 100 nM for the first, < 100 nM for the second.

Compared with `O=C(NCCc1nnc2ccccn12)c1nn(Cc2cn3cc(Br)ccc3n2)c2ccccc12` [Compound 502], `Cc1nc(Cn2nc(C(=O)NCCc3nnc4ccccn34)c3ccccc32)cs1` [Compound 439] is lower in IC50: > 2500 nM for the first, 100 to 500 nM for the second. The second is the more potent here.

`O=C(NCc1ccc(-n2cccn2)cc1)c1nn(Cc2ccc(Cl)cc2)c2ccccc12` [Compound 359] and `CNC(=O)c1cccc(CNC(=O)c2nn(Cc3ccc(Cl)cc3)c3ccccc23)c1` [Compound 399] cannot be ordered by IC50: > 2500 nM for the first, > 2500 nM for the second.

`COc1cc(Cl)ccc1Cn1nc(C(=O)NCCc2nnc3n2CCCCC3)c2ccccc21` [Compound 64] and `O=C(NCCc1nc2c(s1)CCCC2)c1nn(Cc2ccc(Cl)cc2)c2ccccc12` [Compound 29] fall in the same range of IC50: 100 to 500 nM for the first, 100 to 500 nM for the second.

`O=C(NCCc1cccnc1)c1nn(Cc2ccc(OC(F)F)cc2)c2ccccc12` [Compound 42] and `O=C(NCCc1cccnc1)c1nn(Cc2ccc(F)cc2)c2ccccc12` [Compound 57] fall in the same range of IC50: 100 to 500 nM for the first, 100 to 500 nM for the second.

`Cc1ccc(Cn2nc(C(=O)NCCc3noc(C(C)C)n3)c3ccccc32)cc1` [Compound 85] and `Cc1ccc(Cn2nc(C(=O)NCCc3c[nH]nn3)c3ccccc32)cc1` [Compound 73] fall in the same range of IC50: 501 to 1000 nM for the first, 501 to 1000 nM for the second.

First: O=C(NCCc1cccnc1)c1cn(Cc2cccc(Cl)c2)c2ccccc12 [Compound 195]
Second: Cc1cccc(Cn2cc(C(=O)NCCc3cccnc3)c3ccccc32)c1 [Compound 201]
The IC50 of the first is lower: 501 to 1000 nM for the first, 1000 to 2500 nM for the second. The first is the more potent here.

Compared with `O=C(NCCc1nnc2ccccn12)c1nn(Cc2ccc(Cl)c(Cl)c2)c2ccc(F)cc12` [Compound 571], `Cn1c(Cn2nc(C(=O)NCCc3nnc4ccccn34)c3ccccc32)nc2cc(F)ccc21` [Compound 574] is higher in IC50: < 100 nM for the first, 100 to 500 nM for the second.

First: Cc1ccccc1S(=O)(=O)NC(=O)c1nn(Cc2ccc(Cl)cc2)c2ccccc12 [Compound 287]
Second: Cc1[nH]c2ccccc2c1CCNC(=O)c1nn(Cc2ccc(Cl)cc2)c2ccccc12 [Compound 340]
The IC50 of the first is lower: 1000 to 2500 nM for the first, > 2500 nM for the second.

Compared with `N#Cc1ccccc1Cn1nc(C(=O)NCCc2cccnc2)c2ccccc21` [Compound 47], `COc1cccc(Cn2nc(C(=O)NCCc3cccnc3)c3ccccc32)c1` [Compound 101] is higher in IC50: 100 to 500 nM for the first, 1000 to 2500 nM for the second.

Compared with `Cc1cccc(C(F)(F)F)c1Cn1nc(C(=O)NCCc2nnc3ccccn23)c2ccccc21` [Compound 457], `O=C(NCCc1nnc2ccccn12)c1nn(Cc2cccc(C(F)(F)F)c2F)c2ccccc12` [Compound 459] is lower in IC50: > 2500 nM for the first, 100 to 500 nM for the second.

Compared with `O=C(NCCc1nnc2ccccn12)c1nn(Cc2cc(F)cc(C(F)(F)F)c2)c2ccccc12` [Compound 509], `O=C(NCCc1nnc2ccccn12)c1nn(Cc2cc3ccccc3s2)c2ccccc12` [Compound 558] is lower in IC50: 100 to 500 nM for the first, < 100 nM for the second.

First: O=C(NCCc1ccc(Cl)c(F)c1)c1cn(Cc2ccc(Cl)cc2)c2ccccc12 [Compound 205]
Second: O=C(NCCc1ccc(Cl)c(F)c1)c1cn(Cc2ccccc2F)c2ccccc12 [Compound 224]
The IC50 of the first is lower: 1000 to 2500 nM for the first, > 2500 nM for the second.

Compared with `O=C(NCCc1nnc2ccccn12)c1nn(Cc2ccc(Cl)cc2)c2cccc(Br)c12` [Compound 566], `COc1cccc(CCNC(=O)c2nn(Cc3ccc(Cl)cc3)c3ccccc23)n1` [Compound 75] is higher in IC50: 100 to 500 nM for the first, 501 to 1000 nM for the second. The first is the more potent here.

Compared with `N#Cc1ccc(CCNC(=O)c2cn(Cc3ccc(Cl)cc3)c3ccccc23)cn1` [Compound 185], `COc1ccc(CCNC(=O)c2cn(Cc3ccc(Cl)cc3)c3ccccc23)cc1` [Compound 182] is lower in IC50: 501 to 1000 nM for the first, 100 to 500 nM for the second.

Compared with `Cc1cccc2c(CCNC(=O)c3nn(Cc4ccc(Cl)cc4)c4ccccc34)c[nH]c12` [Compound 341], `Cc1ccc(Cn2nc(C(=O)NCCc3ccccn3)c3ccccc32)cc1` [Compound 63] is lower in IC50: > 2500 nM for the first, 100 to 500 nM for the second. The second is the more potent here.

`Cc1ccc(Cn2cc(C(=O)NCCc3nc4c(s3)CCC4)c3ccccc32)cc1` [Compound 174] and `Cc1ccc(Cn2nc(C(=O)NCCc3nc4c(s3)CCCC4)c3c(F)cccc32)cc1` [Compound 69] fall in the same range of IC50: 100 to 500 nM for the first, 100 to 500 nM for the second.

First: Cc1ccc(Cn2cc(C(=O)NCCc3ccncc3)c3ccccc32)cc1 [Compound 172]
Second: COCCn1cnnc1CCNC(=O)c1nn(Cc2ccc(Cl)cc2)c2ccccc12 [Compound 92]
The IC50 of the first is lower: 100 to 500 nM for the first, 501 to 1000 nM for the second. The first is the more potent here.

Same assay, conditions: versus 20 μM deoxycholic acid agonist; HEK cells expressing human MRGPR X4; read-out: MRGPRX4 Antagonist Activity

`Cc1cccc(S(=O)(=O)NC(=O)c2nn(Cc3ccc(Cl)cc3)c3ccccc23)n1` [Compound 305] and `O=C(NS(=O)(=O)c1cccnc1)c1nn(Cc2ccc(Cl)cc2)c2ccccc12` [Compound 304] cannot be ordered by IC50: > 2500 nM for the first, > 2500 nM for the second.

Compared with `CC(C)c1ccccc1S(=O)(=O)NC(=O)c1nn(Cc2ccc(Cl)cc2)c2ccccc12` [Compound 302], `Cc1ccccc1CS(=O)(=O)NC(=O)c1nn(Cc2ccc(Cl)cc2)c2ccccc12` [Compound 288] is lower in IC50: > 2500 nM for the first, 1000 to 2500 nM for the second. The second is the more potent here.

First: O=C(CS(=O)(=O)c1cn(Cc2ccc(Cl)cc2)c2ccccc12)Nc1cccc(Cl)c1 [Compound 253]
Second: O=C(CS(=O)(=O)c1cn(Cc2ccc(Cl)cc2)c2ccccc12)Nc1cccnc1 [Compound 239]
The IC50 of the first is higher: 1000 to 2500 nM for the first, 100 to 500 nM for the second.

First: O=C(NS(=O)(=O)Cc1ccccn1)c1nn(Cc2ccc(Cl)cc2)c2ccccc12 [Compound 299]
Second: O=C(NCCOc1ccncc1)c1nn(Cc2ccc(Cl)cc2)c2ccccc12 [Compound 406]
The IC50 of the first is higher: > 2500 nM for the first, 1000 to 2500 nM for the second.

First: Cc1ccc(S(=O)(=O)NC(=O)c2nn(Cc3ccc(OC(F)F)cc3)c3ccccc23)cc1C [Compound 295]
Second: Cc1cc(S(=O)(=O)NC(=O)c2nn(Cc3ccc(OC(F)F)cc3)c3ccccc23)ccc1Cl [Compound 303]
The IC50 of the first is lower: 1000 to 2500 nM for the first, > 2500 nM for the second. The first is the more potent here.

First: CNCc1cn(CCNC(=O)c2nn(Cc3ccc(Cl)cc3)c3ccccc23)nn1 [Compound 142]
Second: Cc1cccc(S(=O)(=O)NC(=O)c2nn(Cc3ccc(OC(F)F)cc3)c3ccccc23)c1Cl [Compound 283]
The IC50 of the first is higher: > 2500 nM for the first, 1000 to 2500 nM for the second. The second is the more potent here.

`Cc1cccc(S(=O)(=O)NC(=O)c2nn(Cc3ccc(OC(F)(F)F)cc3)c3ccccc23)c1` [Compound 272] and `Cc1cccc(NC(=O)CS(=O)(=O)c2cn(CCN3CCC(F)(F)C3)c3ccccc23)c1` [Compound 254] fall in the same range of IC50: 1000 to 2500 nM for the first, 1000 to 2500 nM for the second.
